From ChEMBL document CHEMBL6177993, “De Novo 3-(Phenylcarbamoyl) Benzoate Analogues: Efficacy against Multidrug-Resistant S. aureus and Elucidation of the Biodistribution Profile” (J Med Chem, 2025)
Values after ≈ are worked out from the molar mass of the structure shown.

Experiments:
Assay type in all cases: functional
Enterococcus faecalis = assay: Antibacterial activity against Enterococcus faecalis ATCC 35550 assessed as reduction in bacterial growth measured after 18 to 24 hrs by broth microdilution method; conditions: time 18-24 hrs
Pseudomonas aeruginosa = assay: Antibacterial activity against Pseudomonas aeruginosa ATCC 27853 assessed as reduction in bacterial growth measured after 18 to 24 hrs by broth microdilution method; conditions: time 18-24 hrs
Acinetobacter baumannii = assay: Antibacterial activity against Acinetobacter baumannii BAA 1605 assessed as reduction in bacterial growth measured after 18 to 24 hrs by broth microdilution method; conditions: time 18-24 hrs
Bacillus subtilis = assay: Antibacterial activity against Bacillus subtilis IITKSM1 assessed as reduction in bacterial growth measured after 18 to 24 hrs by broth microdilution method; conditions: time 18-24 hrs
Staphylococcus aureus [1] = assay: Antibacterial activity against Staphylococcus aureus ATCC 29213 assessed as reduction in bacterial growth measured after 18 to 24 hrs by broth microdilution method; conditions: time 18-24 hrs
Klebsiella pneumoniae = assay: Antibacterial activity against Klebsiella pneumoniae BAA 1705 assessed as reduction in bacterial growth measured after 18 to 24 hrs by broth microdilution method; conditions: time 18-24 hrs
Escherichia coli = assay: Antibacterial activity against Escherichia coli ATCC 25922 assessed as reduction in bacterial growth measured after 18 to 24 hrs by broth microdilution method; conditions: time 18-24 hrs
Staphylococcus aureus [2] = assay: Antibacterial activity against Staphylococcus aureus assessed as reduction in bacterial growth
Staphylococcus aureus [3] = assay: Antibacterial activity against methicillin-resistant Staphylococcus aureus NRS 193 assessed as reduction in bacterial growth measured after 18 to 24 hrs by broth microdilution method; conditions: time 18-24 hrs
Staphylococcus aureus [4] = assay: Antibacterial activity against vacomycin-resistant Staphylococcus aureus VRS 12 assessed as reduction in bacterial growth measured after 18 to 24 hrs by broth microdilution method; conditions: time 18-24 hrs
Staphylococcus aureus [5] = assay: Antibacterial activity against methicillin-resistant Staphylococcus aureus NRS 191 assessed as reduction in bacterial growth measured after 18 to 24 hrs by broth microdilution method; conditions: time 18-24 hrs
Staphylococcus aureus [6] = assay: Antibacterial activity against methicillin-resistant Staphylococcus aureus NRS 119 assessed as reduction in bacterial growth measured after 18 to 24 hrs by broth microdilution method; conditions: time 18-24 hrs
Staphylococcus aureus [7] = assay: Antibacterial activity against methicillin-resistant Staphylococcus aureus NRS 192 assessed as reduction in bacterial growth measured after 18 to 24 hrs by broth microdilution method; conditions: time 18-24 hrs
Staphylococcus aureus [8] = assay: Antibacterial activity against methicillin-sensitive Staphylococcus aureus ATCC 29213 assessed as reduction in bacterial growth measured after 18 to 24 hrs by broth microdilution method; conditions: time 18-24 hrs
Staphylococcus aureus [9] = assay: Antibacterial activity against vacomycin-resistant Staphylococcus aureus VRS 4 assessed as reduction in bacterial growth measured after 18 to 24 hrs by broth microdilution method; conditions: time 18-24 hrs
Staphylococcus aureus [10] = assay: Antibacterial activity against vacomycin-resistant Staphylococcus aureus VRS 1 assessed as reduction in bacterial growth measured after 18 to 24 hrs by broth microdilution method; conditions: time 18-24 hrs
Staphylococcus aureus [11] = assay: Antibacterial activity against methicillin-resistant Staphylococcus aureus NRS 100 assessed as reduction in bacterial growth measured after 18 to 24 hrs by broth microdilution method; conditions: time 18-24 hrs
Staphylococcus aureus [12] = assay: Antibacterial activity against methicillin-resistant Staphylococcus aureus NRS 198 assessed as reduction in bacterial growth measured after 18 to 24 hrs by broth microdilution method; conditions: time 18-24 hrs
Staphylococcus aureus [13] = assay: Antibacterial activity against methicillin-resistant Staphylococcus aureus NRS 194 assessed as reduction in bacterial growth measured after 18 to 24 hrs by broth microdilution method; conditions: time 18-24 hrs
Staphylococcus aureus [14] = assay: Antibacterial activity against methicillin-resistant Staphylococcus aureus NRS 129 assessed as reduction in bacterial growth measured after 18 to 24 hrs by broth microdilution method; conditions: time 18-24 hrs
Staphylococcus aureus [15] = assay: Antibacterial activity against methicillin-resistant Staphylococcus aureus NRS 186 assessed as reduction in bacterial growth measured after 18 to 24 hrs by broth microdilution method; conditions: time 18-24 hrs

| SMILES | MIC (Enterococcus faecalis) [µg/mL] | MIC (Pseudomonas aeruginosa) [µg/mL] | MIC (Acinetobacter baumannii) [µg/mL] | MIC (Bacillus subtilis) [µg/mL] | MIC (Staphylococcus aureus [1]) [µg/mL] | MIC (Klebsiella pneumoniae) [µg/mL] | MIC (Escherichia coli) [µg/mL] | other results |
| --- | --- | --- | --- | --- | --- | --- | --- | --- |
| Cc1cc(C(c2ccccc2)c2ccccc2)c(NC(=O)c2cccc(C(=O)O)c2)c(C(c2ccccc2)c2ccccc2)c1 | 64 (≈ 109 µM) | > 64 | > 64 | 64 (≈ 109 µM) | 4 (≈ 6.81 µM) | > 64 | > 64 | – |
| NCCCC[C@H](N)C(=O)N[C@@H](Cc1ccccc1)CN(CC(=O)NCC12CC3CC(CC(C3)C1)C2)C(=O)CC12CC3CC(CC(C3)C1)C2 | – | – | – | – | – | – | – | MIC (Staphylococcus aureus [2]): 1.56 µg/mL (≈ 2.36 µM) |
| O=C(O)c1cccc(C(=O)Nc2c(C(c3ccccc3)c3ccccc3)cc(Br)cc2C(c2ccccc2)c2ccccc2)c1 | 2 (≈ 3.06 µM) | > 64 | > 64 | 2 (≈ 3.06 µM) | 4 (≈ 6.13 µM) | > 64 | > 64 | – |
| O=C(O)c1cccc(C(=O)Nc2c(C(c3ccccc3)c3ccccc3)cc(F)cc2C(c2ccccc2)c2ccccc2)c1 | 2 (≈ 3.38 µM) | > 64 | > 64 | 1 (≈ 1.69 µM) | 4 (≈ 6.76 µM) | > 64 | > 64 | – |
| O=C(O)c1cccc(C(=O)Nc2c(C(c3ccccc3)c3ccccc3)cc([N+](=O)[O-])cc2C(c2ccccc2)c2ccccc2)c1 | 8 (≈ 12.9 µM) | > 64 | > 64 | 4 (≈ 6.47 µM) | 4 (≈ 6.47 µM) | > 64 | > 64 | – |
| CCCCc1cc(C(c2ccccc2)c2ccccc2)c(NC(=O)c2cccc(C(=O)O)c2)c(C(c2ccccc2)c2ccccc2)c1 | 2 (≈ 3.18 µM) | > 64 | > 64 | 8 (≈ 12.7 µM) | 16 (≈ 25.4 µM) | > 64 | > 64 | – |
| CC(c1ccccc1)c1cc(Cl)cc(C(C)c2ccccc2)c1NC(=O)c1cccc(C(=O)O)c1 (configuration not stated) | > 64 | > 64 | > 64 | > 64 | > 64 | > 64 | > 64 | – |
| N=C(N)NCCC[C@H](NC(=O)[C@H](CCCNC(=N)N)NC(=O)[C@H](CCCNC(=N)N)NC(=O)Cn1cc(COc2ccccc2-c2ccc(-c3ccc(-c4ccccc4OCc4cn(CC(=O)N[C@@H](CCCNC(=N)N)C(=O)N[C@@H](CCCNC(=N)N)C(=O)N[C@@H](CCCNC(=N)N)C(N)=O)nn4)cc3)cc2)nn1)C(N)=O | – | – | – | – | – | – | – | MIC (Staphylococcus aureus [2]): 6.05 µg/mL (≈ 3.9 µM) |
| O=C(O)c1cccc(C(=O)Nc2c(C(c3ccccc3)c3ccccc3)cc(C(F)(F)F)cc2C(c2ccccc2)c2ccccc2)c1 | 16 (≈ 24.9 µM) | > 64 | > 64 | 1 (≈ 1.56 µM) | > 64 | > 64 | > 64 | – |
| O=C(O)c1cccc(C(=O)Nc2c(C(c3ccccc3)c3ccccc3)cc(C(c3ccccc3)c3ccccc3)cc2C(c2ccccc2)c2ccccc2)c1 | 8 (≈ 10.8 µM) | > 64 | > 64 | 64 (≈ 86.5 µM) | > 64 | > 64 | > 64 | – |
| COc1ccc2c(c[n+]3c4c2ccc2c5c(cc(c24)CC3)OCO5)c1NC(=O)c1csnn1.[Cl-] | – | – | – | – | – | – | – | MIC (Staphylococcus aureus [2]): 2 µg/mL |
| CN(C)c1ccc(O)c2c1C[C@H]1C[C@H]3[C@H](N(C)C)C(O)=C(C(N)=O)C(=O)[C@@]3(O)C(O)=C1C2=O [MINOCYCLINE] | – | – | – | – | – | – | – | MIC (Staphylococcus aureus [3]): > 64 µg/mL; MIC (Staphylococcus aureus [4]): 16 µg/mL (≈ 35 µM); MIC (Staphylococcus aureus [5]): 64 µg/mL (≈ 140 µM); MIC (Staphylococcus aureus [6]): > 64 µg/mL; MIC (Staphylococcus aureus [7]): 32 µg/mL (≈ 69.9 µM); MIC (Staphylococcus aureus [8]): 0.25 µg/mL (≈ 0.546 µM); MIC (Staphylococcus aureus [9]): > 64 µg/mL; MIC (Staphylococcus aureus [10]): > 64 µg/mL; MIC (Staphylococcus aureus [11]): > 64 µg/mL; MIC (Staphylococcus aureus [12]): 64 µg/mL (≈ 140 µM); MIC (Staphylococcus aureus [13]): 2 µg/mL (≈ 4.37 µM); MIC (Staphylococcus aureus [14]): 8 µg/mL (≈ 17.5 µM); MIC (Staphylococcus aureus [15]): 8 µg/mL (≈ 17.5 µM) |
| O=C(O)c1cccc(C(=O)Nc2c(C(c3ccccc3)c3ccccc3)cc(OC(F)F)cc2C(c2ccccc2)c2ccccc2)c1 | 2 (≈ 3.13 µM) | > 64 | > 64 | 1 (≈ 1.56 µM) | 4 (≈ 6.25 µM) | > 64 | > 64 | – |
| C[C@H]1COc2c(N3CCN(C)CC3)c(F)cc3c(=O)c(C(=O)O)cn1c23 [LEVOFLOXACIN ANHYDROUS] | – | – | – | – | – | – | – | MIC (Staphylococcus aureus [3]): 32 µg/mL (≈ 88.6 µM); MIC (Staphylococcus aureus [4]): 32 µg/mL (≈ 88.6 µM); MIC (Staphylococcus aureus [5]): 16 µg/mL (≈ 44.3 µM); MIC (Staphylococcus aureus [6]): 16 µg/mL (≈ 44.3 µM); MIC (Staphylococcus aureus [7]): 8 µg/mL (≈ 22.1 µM); MIC (Staphylococcus aureus [8]): 0.25 µg/mL (≈ 0.692 µM); MIC (Staphylococcus aureus [9]): > 64 µg/mL; MIC (Staphylococcus aureus [10]): 32 µg/mL (≈ 88.6 µM); MIC (Staphylococcus aureus [11]): 0.25 µg/mL (≈ 0.692 µM); MIC (Staphylococcus aureus [12]): 32 µg/mL (≈ 88.6 µM); MIC (Staphylococcus aureus [13]): 0.125 µg/mL (≈ 0.346 µM); MIC (Staphylococcus aureus [14]): 0.25 µg/mL (≈ 0.692 µM); MIC (Staphylococcus aureus [15]): 4 µg/mL (≈ 11.1 µM) |
| CC(c1ccccc1)c1cc(C(C)(C)C)cc(C(C)c2ccccc2)c1NC(=O)c1cccc(C(=O)O)c1 (configuration not stated) | > 64 | > 64 | > 64 | > 64 | > 64 | > 64 | > 64 | – |
| COc1cc(C(c2ccccc2)c2ccccc2)c(NC(=O)c2cccc(C(=O)O)c2)c(C(c2ccccc2)c2ccccc2)c1 | 64 (≈ 106 µM) | > 64 | > 64 | 32 (≈ 53 µM) | 8 (≈ 13.3 µM) | > 64 | > 64 | – |
| O=C(Nc1ccccc1)c1cc(Cl)ccc1O | – | – | – | – | – | – | – | MIC (Staphylococcus aureus [2]): ≥ 2.47 µg/mL |
| CCOc1cc(C(c2ccccc2)c2ccccc2)c(NC(=O)c2cccc(C(=O)O)c2)c(C(c2ccccc2)c2ccccc2)c1 | 64 (≈ 104 µM) | > 64 | > 64 | 1 (≈ 1.62 µM) | 64 (≈ 104 µM) | > 64 | > 64 | – |
| O=C(O)c1cccc(C(=O)Nc2c(C(c3ccccc3)c3ccccc3)cc(OC(F)(F)F)cc2C(c2ccccc2)c2ccccc2)c1 | 2 (≈ 3.04 µM) | > 64 | > 64 | 2 (≈ 3.04 µM) | 2 (≈ 3.04 µM) | > 64 | > 64 | – |
| C#CCOc1ccccc1-c1ccc(-c2ccc(-c3ccccc3OCc3cn(CC(=O)N[C@@H](CCCNC(=N)N)C(=O)N[C@@H](CCCNC(=N)N)C(=O)N[C@@H](CCCNC(=N)N)C(N)=O)nn3)cc2)cc1 | – | – | – | – | – | – | – | MIC (Staphylococcus aureus [2]): 3.83 µg/mL (≈ 3.9 µM) |
